Laboratory results: US20220313629A1, “TRANSIENT POTENTIAL MELASTATIN 8 (TRPM8) ANTAGONISTS AND RELATED METHODS” (MARSHALL UNIVERSITY RESEARCH CORPORATION, priority 2019, published 2022)
Like-named read-outs stand apart in the source and are kept apart here.

Tests used:
Format in all cases: cell-based
human TRPV1 = human TRPV1 (Homo sapiens, UniProt Q8NER1); test: TRPV1 agonist and antagonist Ca2+ flux assay (FLIPR, Fluo-8) in HEK293 cells stably expressing human TRPV1; conditions: for effect on hTRPV1-mediated responses (intrinsic and antagonist activity): at concentrations 13- to 25-fold higher than hTRPM8 IC50; for hTRPV1 % Activation (n = 3): normalized to Emax of capsaicin (3 μM)
human TRPA1 = human TRPA1 (Homo sapiens, UniProt O75762); test: TRPA1 agonist and antagonist Ca2+ flux assay (FLIPR, Fluo-8) in HEK293 cells stably expressing human TRPA1; conditions: for effect on hTRPA1-mediated responses (intrinsic and antagonist activity): at concentrations 13- to 25-fold higher than hTRPM8 IC50; for hTRPA1 % Activation (n = 3-5): normalized to Emax of AITC (300 μM)
TRPM8 = TRPM8 (Homo sapiens, UniProt Q7Z2W7); test: TRPM8 antagonist activity by Fura-2 Ca2+ imaging in HEK-293 cells stably expressing human TRPM8; conditions: for IC50: read-out: Functional Activity hTRPM8 potency IC50 ± SEM
[1] = HEK293, read-out: hTRPV1 % Inhibition (n = 3)
[2] = HEK293, read-out: hTRPA1 % Inhibition (n = 3)
[3] = inhibition of icilin (500 nM)-evoked Ca2+ entry, HEK-293 cells stably expressing hTRPM8, mean ± SEM, three independent experiments
[4] = HEK293, read-out: % Activation Mean ± SEM (n = 5), TRPV1 antagonist data (Percentage Inhibition Normalized to EC80 Control)

Chain of human TRPV1 (Q8NER1 whole entry): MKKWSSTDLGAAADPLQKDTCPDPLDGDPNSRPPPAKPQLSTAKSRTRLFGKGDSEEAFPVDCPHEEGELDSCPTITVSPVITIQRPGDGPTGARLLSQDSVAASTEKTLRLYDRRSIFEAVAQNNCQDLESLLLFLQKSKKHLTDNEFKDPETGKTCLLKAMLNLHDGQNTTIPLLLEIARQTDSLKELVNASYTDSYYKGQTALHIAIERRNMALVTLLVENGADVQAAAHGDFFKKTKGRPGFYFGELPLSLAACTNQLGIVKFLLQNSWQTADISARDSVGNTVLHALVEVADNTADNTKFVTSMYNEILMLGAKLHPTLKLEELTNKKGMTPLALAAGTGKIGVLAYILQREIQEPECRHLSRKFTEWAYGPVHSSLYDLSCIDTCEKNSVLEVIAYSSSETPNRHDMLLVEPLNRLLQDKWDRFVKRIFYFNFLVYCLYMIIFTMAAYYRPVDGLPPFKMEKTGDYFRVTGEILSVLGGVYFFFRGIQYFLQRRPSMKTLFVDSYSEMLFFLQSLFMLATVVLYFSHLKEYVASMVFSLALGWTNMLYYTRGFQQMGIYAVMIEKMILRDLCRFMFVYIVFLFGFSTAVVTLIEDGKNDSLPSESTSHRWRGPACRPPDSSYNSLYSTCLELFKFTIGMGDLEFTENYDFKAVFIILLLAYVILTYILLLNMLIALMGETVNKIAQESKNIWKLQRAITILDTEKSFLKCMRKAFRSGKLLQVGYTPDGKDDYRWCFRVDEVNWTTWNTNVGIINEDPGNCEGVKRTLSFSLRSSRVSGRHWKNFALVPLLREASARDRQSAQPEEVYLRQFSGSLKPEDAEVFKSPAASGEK
Chain of human TRPA1 (O75762 whole entry): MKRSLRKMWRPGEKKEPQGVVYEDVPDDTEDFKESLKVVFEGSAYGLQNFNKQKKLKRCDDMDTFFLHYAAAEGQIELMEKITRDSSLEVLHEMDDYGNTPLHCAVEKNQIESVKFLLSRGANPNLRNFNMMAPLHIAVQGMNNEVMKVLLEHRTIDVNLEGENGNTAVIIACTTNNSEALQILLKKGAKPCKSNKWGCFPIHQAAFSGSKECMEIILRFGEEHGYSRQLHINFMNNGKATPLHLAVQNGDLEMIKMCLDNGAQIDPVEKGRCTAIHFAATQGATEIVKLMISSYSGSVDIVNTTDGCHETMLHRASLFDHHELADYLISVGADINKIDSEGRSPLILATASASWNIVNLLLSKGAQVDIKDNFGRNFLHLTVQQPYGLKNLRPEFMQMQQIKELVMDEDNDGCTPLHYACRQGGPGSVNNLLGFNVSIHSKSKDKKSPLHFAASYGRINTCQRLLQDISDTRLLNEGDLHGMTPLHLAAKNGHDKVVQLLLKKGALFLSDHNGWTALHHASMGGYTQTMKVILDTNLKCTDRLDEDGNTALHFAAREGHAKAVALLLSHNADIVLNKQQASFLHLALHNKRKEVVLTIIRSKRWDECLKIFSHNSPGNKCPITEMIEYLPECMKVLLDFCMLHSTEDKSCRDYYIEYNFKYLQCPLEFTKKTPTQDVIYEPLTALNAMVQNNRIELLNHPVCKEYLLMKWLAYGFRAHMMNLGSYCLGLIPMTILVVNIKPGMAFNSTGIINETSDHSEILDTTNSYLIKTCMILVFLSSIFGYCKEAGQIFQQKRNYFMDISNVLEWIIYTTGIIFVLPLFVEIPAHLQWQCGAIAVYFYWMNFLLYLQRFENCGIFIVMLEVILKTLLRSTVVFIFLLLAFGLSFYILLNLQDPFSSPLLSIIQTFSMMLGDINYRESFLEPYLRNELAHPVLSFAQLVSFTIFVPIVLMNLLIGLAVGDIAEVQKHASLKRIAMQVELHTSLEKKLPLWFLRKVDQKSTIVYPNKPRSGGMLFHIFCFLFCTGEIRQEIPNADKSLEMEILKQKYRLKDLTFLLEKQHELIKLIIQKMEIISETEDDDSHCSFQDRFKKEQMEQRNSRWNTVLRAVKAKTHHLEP
Chain of TRPM8 (Q7Z2W7 whole entry): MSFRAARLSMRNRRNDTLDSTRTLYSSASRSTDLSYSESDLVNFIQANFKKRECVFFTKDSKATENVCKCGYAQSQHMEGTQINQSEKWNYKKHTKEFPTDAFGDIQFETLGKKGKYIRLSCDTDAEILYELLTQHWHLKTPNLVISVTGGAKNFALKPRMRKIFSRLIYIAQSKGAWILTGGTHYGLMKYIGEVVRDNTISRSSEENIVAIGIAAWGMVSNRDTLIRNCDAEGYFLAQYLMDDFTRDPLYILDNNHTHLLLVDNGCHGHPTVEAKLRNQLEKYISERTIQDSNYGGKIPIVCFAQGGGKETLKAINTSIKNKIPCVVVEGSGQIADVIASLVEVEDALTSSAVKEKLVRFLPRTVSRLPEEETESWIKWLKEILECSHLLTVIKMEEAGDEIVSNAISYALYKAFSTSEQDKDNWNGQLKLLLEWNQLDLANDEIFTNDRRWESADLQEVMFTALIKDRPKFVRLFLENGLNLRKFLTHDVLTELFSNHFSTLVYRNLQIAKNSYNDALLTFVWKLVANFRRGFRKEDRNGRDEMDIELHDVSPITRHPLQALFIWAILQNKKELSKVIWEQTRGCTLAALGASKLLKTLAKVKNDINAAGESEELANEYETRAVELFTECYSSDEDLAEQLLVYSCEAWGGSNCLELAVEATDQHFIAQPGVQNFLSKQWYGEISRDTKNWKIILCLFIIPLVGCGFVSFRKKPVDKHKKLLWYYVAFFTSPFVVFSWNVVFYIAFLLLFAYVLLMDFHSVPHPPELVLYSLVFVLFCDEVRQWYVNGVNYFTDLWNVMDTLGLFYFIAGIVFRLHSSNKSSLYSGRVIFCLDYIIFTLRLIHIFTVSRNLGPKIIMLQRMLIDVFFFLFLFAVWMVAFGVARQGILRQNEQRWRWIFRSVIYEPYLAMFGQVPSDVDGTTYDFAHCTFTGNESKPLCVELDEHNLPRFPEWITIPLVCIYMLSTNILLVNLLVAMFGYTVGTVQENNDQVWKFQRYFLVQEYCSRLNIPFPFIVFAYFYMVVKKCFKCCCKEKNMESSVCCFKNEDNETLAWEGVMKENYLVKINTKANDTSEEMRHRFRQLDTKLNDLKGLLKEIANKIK

## O=C(NC1CCC2CCCCC2C1)c1ccc(-c2ccccc2)cc1 (racemic) [Compound 12, N-((2SR,9RS,10SR)-decahydronaphthalen-2-yl)-[1,1′-biphenyl]-4-carboxamide]
Human TRPV1; [1]
  inhibition at 0.003 µM: -12 ± 3%
  inhibition at 0.03 µM: 1 ± 2%
Human TRPV1
  effect on hTRPV1-mediated responses (intrinsic and antagonist activity): do not affect
Human TRPV1; tested at 3 nM
  hTRPV1 % Activation (n = 3): 2 ± 1%
Human TRPV1; tested at 30 nM
  hTRPV1 % Activation (n = 3): 3 ± 1%
Human TRPA1; [2]
  inhibition at 0.003 µM: -0.3 ± 3%
  inhibition at 0.03 µM: 5 ± 9%
Human TRPA1
  effect on hTRPA1-mediated responses (intrinsic and antagonist activity): do not affect
Human TRPA1; tested at 3 nM
  hTRPA1 % Activation (n = 3-5): −2.3 ± 1.0%
Human TRPA1; tested at 30 nM
  hTRPA1 % Activation (n = 3-5): −2.1 ± 0.5%

## O=C(NC1CCCCCCC1)c1ccc(-c2ccccc2)cc1 [Compound 7, N-cyclooctyl-[1,1′-biphenyl]-4-carboxamide]
Human TRPV1; [1]
  inhibition at 0.1 µM: -4 ± 4%
  inhibition at 1 µM: 14 ± 4%
Human TRPV1; tested at 100 nM
  hTRPV1 % Activation (n = 3): −1.9 ± 0.7%
Human TRPV1; tested at 1 μM
  hTRPV1 % Activation (n = 3): −3.2 ± 0.6%
Human TRPA1; [2]
  inhibition at 0.1 µM: -13 ± 4%
  inhibition at 1 µM: 0.2 ± 6%
Human TRPA1; tested at 100 nM
  hTRPA1 % Activation (n = 3-5): −1.0 ± 0.1%
Human TRPA1; tested at 1 μM
  hTRPA1 % Activation (n = 3-5): −1.5 ± 0.9%
TRPM8; [3]
  IC50: 62 ± 1 nM

## O=C(NC1CCCCC1)c1ccc(-c2ccccc2)cc1 [Compound 3, N-cyclohexyl-[1,1′-biphenyl]-4-carboxamide]
TRPM8; [3]
  IC50: 49000 ± 1000 nM

## C=CCN=C=S [AITC, Allyl isothiocyanate, reference compound]
Human TRPA1; 100 nM, normalized to Emax of AITC
  % Activation Mean ± SEM (n = 5), TRPA1 agonist data: −0.8 ± 0.4%
Human TRPA1; 300 nM, normalized to Emax of AITC
  % Activation Mean ± SEM (n = 5), TRPA1 agonist data: −0.5 ± 0.2%
Human TRPA1; 1,000 nM, normalized to Emax of AITC
  % Activation Mean ± SEM (n = 5), TRPA1 agonist data: −0.5 ± 0.2%
Human TRPA1; 3,000 nM, normalized to Emax of AITC
  % Activation Mean ± SEM (n = 5), TRPA1 agonist data: −1.2 ± 0.2%
Human TRPA1; 10,000 nM, normalized to Emax of AITC
  % Activation Mean ± SEM (n = 5), TRPA1 agonist data: 68.8 ± 2.9%
Human TRPA1; 30,000 nM, normalized to Emax of AITC
  % Activation Mean ± SEM (n = 5), TRPA1 agonist data: 78.5 ± 1.0%
Human TRPA1; 100,000 nM, normalized to Emax of AITC
  % Activation Mean ± SEM (n = 5), TRPA1 agonist data: 94.2 ± 2.4%
Human TRPA1; 300,000 nM, normalized to Emax of AITC, n = 10
  % Activation Mean ± SEM, TRPA1 agonist data: 100.0 ± 1.3 %

## Oc1cc2c(cc1O)CN(C(=S)NCCc1ccc(Cl)cc1)CCC2 [Capsazepine, reference compound]
Human TRPV1; [4]
  inhibition at 0.003 µM: 1.6 ± 4.2%
  inhibition at 0.01 µM: 0.1 ± 1.3%
  inhibition at 0.03 µM: 1.1 ± 1.7%
  inhibition at 0.1 µM: 7.1 ± 2.2%
  inhibition at 0.3 µM: 23.4 ± 2.5%
  inhibition at 1 µM: 94.2 ± 1.1%
  inhibition at 3 µM: 100.6 ± 0.3%
  inhibition at 10 µM: 101.2 ± 0.5%
Human TRPV1; capsaicin 100 nM, read-out: IC50, blockade of capsaicin-activated hTRPV1 responses
  IC50: 451 ± 48 nM

## O=C(NC1CCCCCC1)c1ccc(-c2ccccc2)cc1 [Compound 5, N-cycloheptyl-[1,1′-biphenyl]-4-carboxamide]
Human TRPV1; [1]
  inhibition at 0.1 µM: -3 ± 4%
  inhibition at 1 µM: 24 ± 1%
Human TRPV1; tested at 100 nM
  hTRPV1 % Activation (n = 3): 0.0 ± 1.0%
Human TRPV1; tested at 1 μM
  hTRPV1 % Activation (n = 3): 0.6 ± 1.5%
Human TRPA1; [2]
  inhibition at 0.1 µM: -2 ± 5%
  inhibition at 1 µM: 4 ± 5%
Human TRPA1; tested at 100 nM
  hTRPA1 % Activation (n = 3-5): 0.1 ± 0.7%
Human TRPA1; tested at 1 μM
  hTRPA1 % Activation (n = 3-5): 0.8 ± 0.5%
TRPM8; [3]
  IC50: 52 ± 1 nM

## O=C(NC1CCC2(CCCCC2)CC1)c1ccc(-c2ccccc2)cc1 [Compound 13, N-(spiro[5.5]undecan-3-yl)-[1,1′-biphenyl]-4-carboxamide]
Human TRPV1; [1]
  inhibition at 0.1 µM: -3 ± 4%
  inhibition at 1 µM: 5 ± 2%
Human TRPV1
  effect on hTRPV1-mediated responses (intrinsic and antagonist activity): do not affect
Human TRPV1; tested at 100 nM
  hTRPV1 % Activation (n = 3): −1.0 ± 0.4%
Human TRPV1; tested at 1 μM
  hTRPV1 % Activation (n = 3): 0.7 ± 0.2%
Human TRPA1; [2]
  inhibition at 0.1 µM: -1 ± 5%
  inhibition at 1 µM: -7 ± 9%
Human TRPA1
  effect on hTRPA1-mediated responses (intrinsic and antagonist activity): do not affect
Human TRPA1; tested at 100 nM
  hTRPA1 % Activation (n = 3-5): 0.2 ± 0.5%
Human TRPA1; tested at 1 μM
  hTRPA1 % Activation (n = 3-5): −0.2 ± 1.1%
TRPM8; [3]
  IC50: 40 ± 1 nM

## CC(C)[C@@H]1CC[C@@H](C)C[C@H]1NC(=O)c1ccc(-c2ccccc2)cc1 [Compound 1, reference compound]
TRPM8
  IC50: 16000 ± 1000 nM

## O=C(NC1CCC2CCCCC2C1)c1ccc(-c2ccccc2)cc1 (mixture of isomers) [Compound 10, N-(decahydronaphthalen-2-yl)-[1,1′-biphenyl]-4-carboxamide]
Human TRPV1; [1]
  inhibition at 0.01 µM: -13 ± 4%
  inhibition at 0.1 µM: 2 ± 3%
Human TRPV1
  effect on hTRPV1-mediated responses (intrinsic and antagonist activity): does not activate or inhibit
Human TRPV1; tested at 10 nM
  hTRPV1 % Activation (n = 3): 2.4 ± 0.8%
Human TRPV1; tested at 100 nM
  hTRPV1 % Activation (n = 3): 2.3 ± 0.9%
Human TRPA1; [2]
  inhibition at 0.01 µM: -8 ± 3%
  inhibition at 0.1 µM: -1 ± 10%
Human TRPA1
  effect on hTRPA1-mediated responses (intrinsic and antagonist activity): does not activate or inhibit
Human TRPA1; tested at 10 nM
  hTRPA1 % Activation (n = 3-5): 0.2 ± 0.4%
Human TRPA1; tested at 100 nM
  hTRPA1 % Activation (n = 3-5): −1.1 ± 0.2%
TRPM8; icilin Ca2+ assay
  enhancement of TRPM8 potency relative to Compound 8: 3,500 fold
  higher potency than Compound 5 and Compound 7: 10 fold
TRPM8; [3]
  IC50: 6 ± 1 nM
TRPM8
  IC50: ≤ 10 nM

## O=C(NC1CCCC2CCCCC21)c1ccc(-c2ccccc2)cc1 (mixture of isomers) [Compound 8, N-(decahydronaphthalen-1-yl)-[1,1′-biphenyl]-4-carboxamide]
TRPM8; [3]
  IC50: 21000 ± 1000 nM

## COc1cc(CNC(=O)CCCC/C=C/C(C)C)ccc1O [Capsaicin, reference compound]
Human TRPV1; 1 nM, normalized to Emax of capsaicin
  % Activation Mean ± SEM (n = 5), TRPV1 agonist data: −0.2 ± 1.0%
Human TRPV1; 3 nM, normalized to Emax of capsaicin
  % Activation Mean ± SEM (n = 5), TRPV1 agonist data: −1.7 ± 0.7%
Human TRPV1; 10 nM, normalized to Emax of capsaicin
  % Activation Mean ± SEM (n = 5), TRPV1 agonist data: 15.2 ± 0.6%
Human TRPV1; 30 nM, normalized to Emax of capsaicin
  % Activation Mean ± SEM (n = 5), TRPV1 agonist data: 72.4 ± 2.3%
Human TRPV1; 100 nM, normalized to Emax of capsaicin
  % Activation Mean ± SEM (n = 5), TRPV1 agonist data: 81.4 ± 3.3%
Human TRPV1; 300 nM, normalized to Emax of capsaicin
  % Activation Mean ± SEM (n = 5), TRPV1 agonist data: 91.8 ± 3.7%
Human TRPV1; 1,000 nM, normalized to Emax of capsaicin
  % Activation Mean ± SEM (n = 5), TRPV1 agonist data: 101.6 ± 2.0%
Human TRPV1; 3,000 nM, normalized to Emax of capsaicin, n = 10
  % Activation Mean ± SEM, TRPV1 agonist data: 100.0 ± 1.8 %
Human TRPV1; Capsaicin EC80, 100 nM, normalization control
  % Activation, EC80 agonist control of the TRPV1 antagonist assay: 100%

## CC1CCC(C(C)C)C(NC(=O)c2ccc(-c3ccccc3)cc2)C1 (mixture of isomers) [Compound 2, N-(2-isopropyl-5-methylcyclohexyl)-[1,1′-biphenyl]-4-carboxamide]
TRPM8; icilin Ca2+ assay
  increase of hTRPM8 activity relative to Compound 1: 30 fold
TRPM8; [3]
  IC50: 468 ± 1 nM

## O=C(NC1CC2CCC(C2)C1)c1ccc(-c2ccccc2)cc1 (stereo not shown) [Compound 6, N-(bicyclo[3.2.1]octan-3-yl)-[1,1′-biphenyl]-4-carboxamide]
TRPM8; [3]
  IC50: 692 ± 1 nM

## O=C(NC1CCCc2ccccc21)c1ccc(-c2ccccc2)cc1 (stereo not shown) [Compound 9, N-(1,2,3,4-tetrahydronaphthalen-1-yl)-[1,1′-biphenyl]-4-carboxamide]
TRPM8; icilin Ca2+ assay
  loss of potency vs. Compound 8: 3 fold
TRPM8
  IC50: 55000 ± 1000 nM

## O=C(NC1CC2CCC1C2)c1ccc(-c2ccccc2)cc1 (single isomer, unassigned) [Compound 4, N-(bicyclo[2.2.1]heptan-2-yl)-[1,1′-biphenyl]-4-carboxamide]
TRPM8
  IC50: 7100 ± 900 nM
